Data published in patent publication US12187742B2 (XRAD Therapeutics, Inc., priority 2018, dated 2025).
Counter-ions that a name gives are not always drawn.

biological target: ATM (Homo sapiens (Human), UniProt Q13315); assay: ATM in Cell Western Assay (pKAP1 in etoposide-treated MCF-7 cells); assay type: cell-based; conditions: pKAP1 in etoposide-treated MCF-7 cells
Outline: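 Cells received compounds in a 10-dose, 3-fold series from a 1 μM final top concentration, then 100 μM etoposide, for 1 hr at 37° C. They were then fixed with paraformaldehyde and permeabilized with 0.1% Triton X-100. After immunostaining, plates were scanned on an infrared imager.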

Sequence of ATM (Q13315 whole entry): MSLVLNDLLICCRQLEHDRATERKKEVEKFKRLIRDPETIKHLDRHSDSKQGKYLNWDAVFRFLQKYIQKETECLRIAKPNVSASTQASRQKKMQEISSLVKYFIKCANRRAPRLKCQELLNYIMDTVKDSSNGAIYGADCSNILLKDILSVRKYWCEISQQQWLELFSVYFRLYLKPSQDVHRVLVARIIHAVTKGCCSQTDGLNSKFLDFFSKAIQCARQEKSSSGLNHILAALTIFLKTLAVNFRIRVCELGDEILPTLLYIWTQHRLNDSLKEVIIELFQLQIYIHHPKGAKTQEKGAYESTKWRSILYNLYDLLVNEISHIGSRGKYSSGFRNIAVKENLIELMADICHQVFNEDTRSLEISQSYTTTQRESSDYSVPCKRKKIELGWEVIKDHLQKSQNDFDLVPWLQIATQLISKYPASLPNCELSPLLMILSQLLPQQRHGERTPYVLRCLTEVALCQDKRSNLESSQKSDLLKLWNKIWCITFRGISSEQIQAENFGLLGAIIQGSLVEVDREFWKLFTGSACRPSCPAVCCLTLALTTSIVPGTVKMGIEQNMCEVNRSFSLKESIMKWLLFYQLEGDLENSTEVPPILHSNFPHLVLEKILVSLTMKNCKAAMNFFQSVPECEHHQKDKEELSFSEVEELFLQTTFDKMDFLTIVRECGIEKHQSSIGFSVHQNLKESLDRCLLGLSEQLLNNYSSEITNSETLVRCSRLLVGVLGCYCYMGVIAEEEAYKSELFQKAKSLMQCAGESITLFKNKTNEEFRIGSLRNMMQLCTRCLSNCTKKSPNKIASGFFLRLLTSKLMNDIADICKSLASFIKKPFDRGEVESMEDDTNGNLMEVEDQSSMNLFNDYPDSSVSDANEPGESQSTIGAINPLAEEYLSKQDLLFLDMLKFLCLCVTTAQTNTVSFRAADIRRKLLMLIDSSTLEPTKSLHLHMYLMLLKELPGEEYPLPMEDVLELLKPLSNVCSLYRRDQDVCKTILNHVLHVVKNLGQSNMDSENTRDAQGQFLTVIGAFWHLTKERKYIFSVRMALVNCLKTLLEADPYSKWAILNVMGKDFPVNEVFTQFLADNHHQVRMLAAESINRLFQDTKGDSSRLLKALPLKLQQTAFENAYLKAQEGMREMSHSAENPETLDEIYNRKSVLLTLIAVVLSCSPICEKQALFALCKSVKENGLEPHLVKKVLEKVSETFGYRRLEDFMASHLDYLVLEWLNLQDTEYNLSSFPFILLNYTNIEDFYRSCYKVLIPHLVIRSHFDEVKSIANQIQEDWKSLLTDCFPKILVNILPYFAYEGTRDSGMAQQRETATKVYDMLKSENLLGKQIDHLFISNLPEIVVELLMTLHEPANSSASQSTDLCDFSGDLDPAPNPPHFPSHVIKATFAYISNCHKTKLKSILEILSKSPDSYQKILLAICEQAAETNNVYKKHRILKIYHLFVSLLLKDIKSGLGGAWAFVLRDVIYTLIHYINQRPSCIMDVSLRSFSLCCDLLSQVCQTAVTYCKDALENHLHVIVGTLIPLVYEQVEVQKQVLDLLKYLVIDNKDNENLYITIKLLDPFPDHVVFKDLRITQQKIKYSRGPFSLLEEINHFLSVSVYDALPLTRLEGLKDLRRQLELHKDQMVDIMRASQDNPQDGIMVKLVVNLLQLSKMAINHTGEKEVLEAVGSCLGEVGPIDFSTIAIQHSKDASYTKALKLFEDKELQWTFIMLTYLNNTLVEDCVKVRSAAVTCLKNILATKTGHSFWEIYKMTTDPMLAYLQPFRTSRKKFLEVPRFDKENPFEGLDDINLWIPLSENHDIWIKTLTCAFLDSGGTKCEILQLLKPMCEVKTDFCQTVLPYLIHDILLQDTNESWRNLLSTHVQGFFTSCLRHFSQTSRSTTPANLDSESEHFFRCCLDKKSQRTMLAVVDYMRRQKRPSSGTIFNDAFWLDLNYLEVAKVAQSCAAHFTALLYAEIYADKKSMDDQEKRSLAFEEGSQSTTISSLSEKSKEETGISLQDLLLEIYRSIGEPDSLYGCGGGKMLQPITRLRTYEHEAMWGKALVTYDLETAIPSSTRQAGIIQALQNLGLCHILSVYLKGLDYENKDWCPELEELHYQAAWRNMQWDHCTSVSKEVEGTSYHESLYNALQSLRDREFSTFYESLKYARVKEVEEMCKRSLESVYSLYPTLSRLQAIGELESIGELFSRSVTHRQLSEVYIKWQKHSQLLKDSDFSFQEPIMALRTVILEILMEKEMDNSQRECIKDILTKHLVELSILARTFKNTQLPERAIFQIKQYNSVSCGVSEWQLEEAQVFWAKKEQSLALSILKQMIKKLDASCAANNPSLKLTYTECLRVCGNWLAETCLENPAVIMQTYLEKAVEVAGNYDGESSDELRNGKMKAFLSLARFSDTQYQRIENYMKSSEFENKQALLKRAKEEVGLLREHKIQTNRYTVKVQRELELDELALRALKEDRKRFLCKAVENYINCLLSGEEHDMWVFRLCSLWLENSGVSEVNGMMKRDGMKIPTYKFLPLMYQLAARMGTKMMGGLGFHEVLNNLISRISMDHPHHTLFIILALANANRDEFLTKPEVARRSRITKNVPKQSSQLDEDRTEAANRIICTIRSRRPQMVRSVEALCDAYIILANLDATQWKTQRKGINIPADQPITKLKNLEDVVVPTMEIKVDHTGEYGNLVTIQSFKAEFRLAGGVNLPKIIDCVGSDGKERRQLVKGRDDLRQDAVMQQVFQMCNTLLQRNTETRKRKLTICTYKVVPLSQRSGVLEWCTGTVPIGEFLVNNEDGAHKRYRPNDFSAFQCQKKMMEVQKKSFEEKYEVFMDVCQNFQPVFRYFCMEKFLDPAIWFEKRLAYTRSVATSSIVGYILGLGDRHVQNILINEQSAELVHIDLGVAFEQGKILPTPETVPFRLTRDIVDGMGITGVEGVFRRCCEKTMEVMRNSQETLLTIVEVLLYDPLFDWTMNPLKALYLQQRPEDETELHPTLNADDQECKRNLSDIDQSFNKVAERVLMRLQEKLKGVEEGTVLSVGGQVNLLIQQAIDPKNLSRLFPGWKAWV

How did the IC50 turn out when `CC(C)NCCOc1ncc(-c2cc3c(cc2F)ncc2c3[C@]3(C[C@H](c4cc[nH]c(=O)c4)C3)C(=O)N2C)cc1NS(C)(=O)=O` [Example 444, cis-N-(5-(7′-fluoro-3′-methyl-2′-oxo-3-(2-oxo-1,2-dihydropyridin-4-yl)-2,3′-dihydrospiro[cyclobulane-1,1′-pyrrolo[2,3-c]quinolin]-8′-yl)-2-(2-(isopropylamino)ethoxy)pyridin-3-yl)methanesulfonamide] was run?
Its IC50 is over 100 nM.

How did the IC50 turn out when `CC(C)NCCOc1ncc(-c2cc3c(cc2F)ncc2c3[C@]3(C[C@@H](c4cc[nH]c(=O)c4)C3)C(=O)N2C)cc1NS(C)(=O)=O` [Example 445, trans-N-(5-(7′-Fluoro-3′-methyl-2′-oxo-3-(2-oxo-l,2-dihydropyridin-4-yl)-2′,3′-dihydrospiro[cyclobutane-1,1′-pyrrolo[2,3-c]quinolin]-8′-yl)-2-(2-(isopropylamino)ethoxy)pyridin-3-yl)methanesulfonamide] was run?
Its IC50 is over 100 nM.

Which IC50 does the source give for `CC(C)NCCOc1ncc(-c2cc3c(cc2F)ncc2c3[C@]3(C[C@@H](C)C3)C(=O)N2C)cc1NS(C)(=O)=O` [Example 447, trans-N-(5-(7′-Fluoro-3,3′-dimethyl-2′-oxo-2′,3′-dihydrospiro[cyclobutane-1,1′-pyrrolo[2,3-c]quinolin]-8′-yl)-2-(2-(isopropylamino)ethoxy)pyridin-3-yl)methanesulfonamide] here?
Its IC50 is 1 to 100 nM.

For `CN(C)CCCOc1c(NS(C)(=O)=O)cc(-c2ccc3ncc4c(c3c2)C2(CCC2)C(=O)N4C)cc1C(N)=O` [Example 449, 2-(3-(Dimethylamino)propoxy)-5-(3′-methyl-2′-oxo-2′,3′-dihydrospiro[cyclobutane-1,1′-pyrrolo[2,3-c]quinolin]-8′-yl)-3-(methylsulfonamido)benzamide], which IC50 is on record?
Its IC50 is 1 to 100 nM.

For `CC(C)NCCOc1ncc(-c2cc3c(cc2F)ncc2c3[C@]3(C[C@@H](Cc4ccccc4)C3)C(=O)N2C)cc1NS(C)(=O)=O` [Example 450, trans-N-(5-(3-Benzyl-7-fluoro-3′-methyl-2′-oxo-2′,3′-dihydrospiro [cyclobutane-1,1′-pyrrolo[2,3-c]quinolin]-8′-yl)-2-(2-(isopropylamino)ethoxy)pyridin-3-yl)methanesulfonamide], which IC50 is on record?
Its IC50 is 1 to 100 nM.

With `CC(C)NCCOc1ncc(-c2cc3c(cc2F)ncc2c3[C@]3(C[C@H](CN(C)C)C3)C(=O)N2C)cc1NS(C)(=O)=O` [Example 452, cis-N-(5-(3-((Dimethylamino)methyl)-7′-fluoro-3′-methyl-2′-oxo-2′,3′-dihydrospiro[cyclobutane-1,1′-pyrrolo[2,3-c]quinolin]-8′-yl)-2-(2-(isopropylamino)ethoxy)pyridin-3-yl)methanesulfonamide] as the molecule, how does the IC50 read?
Its IC50 is 1 to 100 nM.

With `CC(C)NCCOc1ncc(-c2cc3c(cc2F)ncc2c3[C@]3(C[C@@H](CN(C)C)C3)C(=O)N2C)cc1NS(C)(=O)=O` [Example 453, trans-N-(5-(3-((Dimethylamino)methyl)-7′-fluoro-3′-methyl-2′-oxo-2′,3′-dihydrospiro[cyclobutane-1,1′-pyrrolo[2,3-c]quinolin]-8′-yl)-2-(2-(isopropylamino)ethoxy)pyridin-3-yl)methanesulfonamide] as the molecule, how does the IC50 read?
Its IC50 is 1 to 100 nM.

Which IC50 does the source give for `CNC[C@H]1C[C@]2(C1)C(=O)N(C)c1cnc3cc(F)c(-c4cnc(OCCNC(C)C)c(NS(C)(=O)=O)c4)cc3c12` [Example 454, cis-N-(5-(7′-Fluoro-3′-methyl-3-((methylamino)methyl)-2′-oxo-2′,3′-dihydrospiro[cyclobutane-1,1′-pyrrolo[2,3-c]quinolin]-8′-yl)-2-(2-(isopropylamino)ethoxy)pyridin-3-yl)methanesulfonamide] here?
Its IC50 is over 100 nM.

With `CNC[C@H]1C[C@@]2(C1)C(=O)N(C)c1cnc3cc(F)c(-c4cnc(OCCNC(C)C)c(NS(C)(=O)=O)c4)cc3c12` [Example 455, trans-N-(5-(7′-Fluoro-3′-methyl-3-((methylamino)methyl)-2′-oxo-2′,3′-dihydrospiro[cyclobutane-1,1′-pyrrolo[2,3-c]quinolin]-8′-yl)-2-(2-(isopropylamino)ethoxy)pyridin-3-yl)methanesulfonamide hydrochloride] as the molecule, how does the IC50 read?
Its IC50 is over 100 nM.

Which IC50 does the source give for `CC(C)NCCOc1ncc(-c2cc3c(cc2F)ncc2c3[C@]3(C[C@@H](C(C)(C)O)C3)C(=O)N2C)cc1NS(C)(=O)=O` [Example 457, trans-N-(5-(7′-Fluoro-3-(2-bydroxypropan-2-yl)-3′-methyl-2′-oxo-2′,3′-dihydrospiro[cyclobutane-1,1′-pyrrolo[2,3-c]quinolin]-8′-yl)-2-(2-(isopropylamino)ethoxy)pyridin-3-yl)methanesulfonamide] here?
Its IC50 is 1 to 100 nM.

How did the IC50 turn out when `CC(C)NCCOc1ncc(-c2cc3c4c(cnc3cc2F)N(C)C(=O)C42CC3(CCNCC3)C2)cc1NS(C)(=O)=O` [Example 458, N-(5-(7′--Fluoro-3″-methyl-2″-oxo-2″,3″-dihydrodispiro [piperidine-4,1′-cyclobutane-31″-pyrrolo[2,3-c]quinolin]-8″-yl)-2-(2-(isopropylamino)ethoxy)pyridin-3-yl) methanesulfonamide] was run?
The IC50 was over 100 nM.

Which IC50 does the source give for `CC(C)NCCOc1ncc(-c2cc3c(cc2F)ncc2c3[C@]3(C[C@@H](Nc4ccc(Cl)cc4)C3)C(=O)N2C)cc1NS(C)(=O)=O` [Example 462, trans-N-(5-(3-((4-Chlorophenyl)amino)-7′-fluoro-3′-methyl-2′-oxo-2′,3′-dihydrospiro[cyclobutane-1,1′-pyrrolo[2,3-c]quinolin]-8′-yl)-2-(2-(isopropylamino)ethoxy)pyridin-3-yl)methanesulfonamide] here?
The IC50 was 1 to 100 nM.

With `CC(C)NCCOc1ncc(-c2cc3c(cc2F)ncc2c3[C@]3(C[C@@H](N(C)c4ccccc4)C3)C(=O)N2C)cc1NS(C)(=O)=O` [Example 464, trans-N-{5-(7′-Fluoro-3′-methyl-3-(methyl(phenyl)amino)-2′-oxo-2′,3′-dihydrospiro[cyclobutane-1,1′-pyrrolo[2,3-c]quinolin]-8′-yl)-2-(2-(isopropylamino)ethoxy)pyridin-3-yl)methanesulfonamide] as the molecule, how does the IC50 read?
The IC50 was over 100 nM.

`CC(C)NCCOc1ncc(-c2cc3c(cc2F)ncc2c3[C@]3(C[C@H](N(C)C)C3)C(=O)N2C)cc1NS(C)(=O)=O` [Example 465, cis-N-(5-(3-(Dimethylamino)-7′-fluoro-3′-methyl-2′-oxo-2′,3′-dihydrospiro[cyclobutane-1,1′-pyrrolo[2,3-c]quinolin]-8′-yl)-2-(2-(isopropylamino)ethoxy)pyridin-3-yl)methanesulfonamide] was tested. Which IC50 did it give?
The IC50 was 1 to 100 nM.

With `CC(C)NCCOc1ncc(-c2cc3c(cc2F)ncc2c3[C@]3(C[C@@H](N(C)C)C3)C(=O)N2C)cc1NS(C)(=O)=O` [Example 466, trans-N-(5-{3-(Dimethylamino)-7′-fluoro-3′-methyl-2′-oxo-2′,3′-dihydrospiro[cyclobutane-1,1′-pyrrolo[2,3-c]quinolin]-8′-yl)-2-(2-(isopropylamino)ethoxy)pyridin-3-yl)methanesulfonamide] as the molecule, how does the IC50 read?
Its IC50 is 1 to 100 nM.

With `CC(C)NCCOc1ncc(-c2cc3c(cc2F)ncc2c3[C@]3(C[C@H](N4CCCC4)C3)C(=O)N2C)cc1NS(C)(=O)=O` [Example 467, cis-N-(5-(7′-Fluoro-3′-methyl-2′-oxo-3-(pyrrolidin-1-yl)-2′,3′-dihydrospiro[cyclobutane-1,1′-pyrrolo[2,3-c]quinolin]-8′-yl)-2-(2-(isopropylamino)ethoxy)pyridin-3-yl)methanesulfonamide] as the molecule, how does the IC50 read?
Its IC50 is 1 to 100 nM.
